Results as given in patent publication US7419999B2, “Gamma lactams as prostaglandin agonists and use thereof” (Applied Research Systems ARS Holding N.V., priority 2002, dated 2008).
Like-named read-outs stand apart in the source and are kept apart here.

Experiments:
mature 10-week CD-1 mice = assay: In vivo ovulation assay (mature mouse ovulation induction model); conditions: for ED50: Mus musculus; for average of ova obtained: 5IU PMSG priming
Description: Ovulation triggering activity of compounds of the invention are tested in a mature mouse ovulation induction model.
Mature 10-week-old CD-mice are used. […] A test compound (based on solubility) is pre-dissolved in ethanol, DMSO or other reagents. Test compound is then diluted with saline or other diluents such as PBS or NP3S (5% N-methyl-pyrrolidinone/30% PEG-400/25% PEG-200/20% Propylene Glycol in saline). PMSG serves to stimulate follicule growth and maturation.
Uterus, oviducts and ovaries were collected and placed in pre-labeled dishes containing phosphate buffered saline (PBS). The collected tissues were transferred to the laboratory and intact oviduct carefully dissected out from uterus and ovary under the dissection microscope. The dissected oviducts were placed on the glass microscopic slide and covered with another slide. Two slides were taped on two edges. The numbers of ovulated ova in the oviducts were counted using upright microscope with 4× objective and recorded.
For evaluating the oral activity of this compound, two experiments were conducted, the first experiment was conducted with non-fasted animals and the second experiment was conducted in 24 h fasted animals (water provided). The compounds of the invention, according to their solubility are pre-dissolved in ethanol, DMSO or other reagents. The compounds of the invention are then diluted with saline or other diluents such as PBS or NP3S before oral administration.

h-EP4 [1] = molecular target: T1, h-EP4 (Homo sapiens, UniProt P35408); assay: EP4 receptor binding assay (3H-PGE2 SPA)
Description: Compounds of the invention were tested in an EP4 receptor binding assay of the following protocol.

h-EP4 [2] = molecular target: T1, h-EP4; assay: EP4 cAMP assay in HEK293-EBNA cells transfected with pCEP4-hEP4; assay type: cell-based
Description: Compounds of the invention were tested in a total cAMP assay as follows. […] After overnight incubation, the medium was removed from each well and replaced with 45 μl of assay medium consisted of phenol red free D-MEM/F-12, 0.1% BSA (GibcoBRL) and 0.1 mM3-isobutyl-1-methyl-xanthine (Sigma). […] Total cAMP (intra- and extra-cellular) was measured by using a cAMP-screen ELISA System (Tropix, #CS1000).

h-EP2 = h-EP2 (Homo sapiens, UniProt P43116); assay: Prostaglandin EP2 receptor binding assay (3H-PGE2 SPA)
Description: Compounds of the invention were tested in an EP2 receptor binding assay of the following protocol. As referred to herein, the term an “EP2 receptor binding assay” designates the following protocol.

TNFα = assay: In vivo inhibition of LPS-induced TNFa release in mice; conditions: oral; Inhibitory Dose at 50% of the maximum effect
Description: The anti-inflammatory activity of compounds of the invention may be assessed after a LPS challenge using the following protocol:
Eight weeks old C3H/HEN mice (IFFA-CREDO, L'arbresle, France) receive an oral treatment with compounds of the invention 6 different doses (0.001, 0.01, 0.1, 1 or 3 and 10 mg/kg in 0.5% CMC/0.25% tween-20). Six mice are used by group. Fifteen minutes later, endotoxins (O111:B4 Sigma, 0.3 mg/kg) are intraperitoneally injected. Heparinized whole blood is collected by decapitation. TNFα level is determined in plasma by ELISA (R & D Systems, Abdingdon, UK). Control animals receive 0.5% CMC/0.25% tween-20 (10 ml/kg) as vehicle. Data obtained from experiments are expressed as the mean±SEM and analysed using one-way analysis of variance (ANOVA) followed by Dunnett's t-test.

[3] = tested on: methacholine-induced bronchoconstriction; assay: In vivo inhibition of guinea pig methacholine-induced bronchoconstriction; conditions: for ED50: Cavia porcellus
Description: Guinea pig pulmonary-cholinergic in vivo model is generally used to test the materials for the treatments of asthma in human (Fleisch at al. 1985, K. Pharmacol. Exp. Ther. 233: 148-157). Compounds of the invention are tested in this model.
Groups of 3 Duncan Hartley derived male or female guinea pigs weighing 250±50 g are anesthetized with pentobarbital sodium (50 mg/kg i.p., plus an additional 15 mg/kg i.p. if required) and succinylcholine chloride (2 mg/animal i.p.) is subsequently administered to prevent spontaneous respiration. Body temperature is maintained at 37° to 38° C.
The trachea is cannulated and the guinea pig is ventilated with a Harvard rodent respirator in a closed system. Tracheal pressure is recorded through a side-arm of the cannula connected to a P23ID Statham transducer. Respiratory rate is set at 50 strokes/minute with a stroke volume (approximately 1 ml/100 g) sufficient to produce a baseline tracheal pressure of 6 cm H2O. Mean arterial pressure (BP) is monitored from a cannulated carotid artery, and heart-rate (HR) is obtained from chest electrodes arranged for lead II. The jugular vein is cannulated for i.v. vehicle or drug administration in a volume of 1 ml/kg.
Cholinergic-induced bronchoconstrictor responses, reflected as increases in tracheal pressure (cm H2O), are elicited by administration of methacholine hydrochloride (10 μg/kg base weight i.v.). In vehicle-treated control animals, methacholine-induced bronchoconstriction ranges from 70 to 90 percent of its own maximum response (about 40 to 65 percent of maximum possible bronchoconstriction obtained by tracheal occlusion).
Compounds of the invention are also tested via intratracheal (IT) route of administration. In this other experiment, compound of the invention, reference compound or vehicle is administered IT 10 (5 min for experiment 1 and 2) minutes before methacholine chloride (10 μg/kg i.v.) induced bronchoconstriction. Tracheal pressure (ITP), blood pressure and heart rate are measured immediately as indicated in the material and methods sections.
MED (medium effective dose) is measured.
Compounds of the invention are administered i.v. (10 mg/kg) 5 minutes before subministration of the methacoline hydrochloride challenge in 3 guinea pigs. A 50 percent or more (≧50) inhibition of the induced bronchoconstriction relative to vehicle treated control animals is considered significant.

[4] = sc, Table 3, s.c., read-out: Ovulation Induction (ED50, mg/kg) s.c.
[5] = Table 2, total cAMP, read-out: h-EP4 EC50
[6] = po, Table 3, p.o., read-out: Ovulation Induction (ED50, mg/kg) p.o.
[7] = sc, read-out: calculated ED50, ovulation induction
[8] = read-out: Ki measured as described in Example 83 (EP4)

Sequence of h-EP2 (P43116 whole entry): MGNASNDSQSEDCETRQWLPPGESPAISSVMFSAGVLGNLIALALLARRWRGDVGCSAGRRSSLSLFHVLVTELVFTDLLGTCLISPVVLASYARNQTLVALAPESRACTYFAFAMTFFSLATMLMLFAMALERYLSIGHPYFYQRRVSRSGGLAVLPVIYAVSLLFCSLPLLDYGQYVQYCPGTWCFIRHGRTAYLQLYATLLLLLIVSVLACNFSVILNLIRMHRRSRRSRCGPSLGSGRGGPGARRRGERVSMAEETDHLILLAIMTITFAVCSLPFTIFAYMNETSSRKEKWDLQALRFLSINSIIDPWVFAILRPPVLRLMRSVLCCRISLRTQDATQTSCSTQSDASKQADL
T1 sequence (P35408 whole entry): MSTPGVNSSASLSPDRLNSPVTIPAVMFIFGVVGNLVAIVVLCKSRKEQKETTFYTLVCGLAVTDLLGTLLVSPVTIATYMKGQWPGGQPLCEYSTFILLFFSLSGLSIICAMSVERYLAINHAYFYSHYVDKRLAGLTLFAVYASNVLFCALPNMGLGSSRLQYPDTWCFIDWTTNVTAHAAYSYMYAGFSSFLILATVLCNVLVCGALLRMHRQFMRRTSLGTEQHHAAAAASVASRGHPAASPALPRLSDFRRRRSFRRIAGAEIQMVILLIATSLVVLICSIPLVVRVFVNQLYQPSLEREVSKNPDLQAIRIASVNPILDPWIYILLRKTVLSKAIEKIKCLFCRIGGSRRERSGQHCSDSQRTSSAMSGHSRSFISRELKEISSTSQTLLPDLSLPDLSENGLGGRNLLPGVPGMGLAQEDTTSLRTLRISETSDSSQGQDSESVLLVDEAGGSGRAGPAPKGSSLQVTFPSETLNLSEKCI

Compound | ED50 (mature 10-week CD-1 mice; [4]) | Ki (h-EP4 [1]; Table 2, read-out: h-EP4 Ki) | ED50 (mature 10-week CD-1 mice; [6]) | Ki (h-EP4 [1]; Table 1, read-out: h-EP4 Ki) | Ki (h-EP2; Table 1, read-out: h-EP2 Ki) | also measured
CS(=O)(=O)NC(=O)CCC/C=C\C[C@H]1C(=O)C[C@@H](O)[C@@H]1/C=C/[C@@H](O)COc1ccccc1 [Sulprostone, reference compound] | > 27 mg/kg | 7740 nM | – | – | – | –
O=C(O)c1ccc(CCN2C(=O)CC[C@@H]2/C=C/[C@@H](O)Cc2cccc(Cl)c2)cc1 [Example 9, 4-(2-{(2R)-2-[(1E,3S)-3-hydroxy-4-(3-chlorophenyl)but-1-enyl]-5-oxopyrrolidin-1-yl}ethyl)benzoic acid] | – | 0.5 nM | 1 mg/kg | – | – | EC50 (h-EP4 [2]; [5]): 30 nM
CCCCCC[C@H](O)/C=C/[C@H]1CCC(=O)N1CCc1ccc(C(=O)O)cc1 [Example 10, 4-(2-{(2R)-2-[(1E,3S)-3-hydroxynon-1-enyl]-5-oxopyrrolidin-1-yl}ethyl) benzoic acid] | – | 1 nM | – | – | – | –
O=C(O)c1ccc(CCN2C(=O)CCN2CCC(O)Cc2cccc(C(F)(F)F)c2)cc1 (centres unmarked) [4-[2-(2-{3-hydroxy-4-[3-(trifluoromethyl)phenyl]butyl}-5-oxopyrazolidin-1-yl)ethyl]benzoic acid, reference compound] | – | – | – | – | – | EC50 (h-EP4 [2]; read-out: EC50 measured as described in Example 84 (EP4)): 0.2 nM; ED50 (mature 10-week CD-1 mice; [7]): 5 mg/kg; Ki (h-EP4 [1]; [8]): 23 nM
CCCCC(C)(C)C(O)/C=C/[C@H]1CCC(=O)N1CCc1ccc(C(=O)O)cc1 (stereo in doubt) [Example 6, 4-(2-{2-[(1E,3R)-3-hydroxy-4,4-dimethyloct-1-enyl]-5-oxopyrrolidin-1-yl}ethyl)benzoic acid] | – | – | – | 20 nM | 2100 nM | –
O=C(O)c1ccc(CCN2C(=O)CC[C@@H]2/C=C/[C@@H](O)Cc2ccccc2)cc1 [Example 31, 4-[2-{(2R)-2-[(1E,3S)-3-hydroxy-4-phenylbut-1-enyl]-5-oxopyrrolidin-1-yl}ethyl)benzoic acid] | 0.32 mg/kg | 0.05 nM | 1 mg/kg | – | – | ID50 (TNFα): 0.003 mg/kg
O=C(O)c1ccc(CCN2C(=O)CC[C@@H]2/C=C/[C@@H](O)C2(c3ccccc3)CC2)cc1 [Example 7, 4-(2-{(2R)-2-[(1E,3R)-3-hydroxy-3-(1-phenylcyclopropyl)prop-1-enyl]-5 oxopyrrolidin-1-yl}ethyl)benzoic acid] | 0.73 mg/kg | 2 nM | – | 16 nM | 220 nM | –
CCCCC[C@H](O)/C=C/[C@H]1CCC(=O)N1CCc1ccc(C(=O)O)cc1 [Example 1, 4-(2-{(2R)-2-[(1E,3S)-3-hydroxyoct-1-enyl]-5-oxopyrrolidin-1-yl}ethyl) benzoic acid] | 3.8 mg/kg | – | 22 mg/kg | 2 nM | 120 nM | average of ova obtained (mature 10-week CD-1 mice; Group 4: 10 mg/kg s.c.): an average of 25 ova were obtained for Group 4;; average of ova obtained (mature 10-week CD-1 mice; Group 5: 30 mg/kg s.c.): an average of 22.4 ova were obtained for Group 5;; ED50 (mature 10-week CD-1 mice; [7]): 3.9 mg/kg; ED50 (mature 10-week CD-1 mice; oral, 24 h fasted animals, read-out: calculated ED50, ovulation induction): 21.1 mg/kg; ED50 (mature 10-week CD-1 mice; oral, non-fasted animals, read-out: calculated ED50, ovulation induction): 22 mg/kg; activity in the mice ovulation induction model (mature 10-week CD-1 mice; subcutaneous (sc), oral (po) and intravenous (iv) routes): active; ED50 ([3]; iv, read-out: calculated effective dose (ED50), bronchoconstriction): ~0.0017 mg/kg; ED50 ([3]; IT route of administration, read-out: calculated ED50, bronchoconstriction): 0.0024 mg/kg; calculated ED50, bronchoconstriction ([3]; IT route of administration): 0.72 μg/GP; effect on blood pressure and heart beat ([3]; i.v., 3 10^−5 up to 0.3 mg/kg): not altering neither blood pressure nor heart beat
CCCCC(C)(C)C(O)/C=C/[C@H]1CCC(=O)N1CCc1ccc(C(=O)O)cc1 (stereo in doubt) [Example 5, 4-(2-{2-[(1E,3S)-3-hydroxy-4,4-dimethyloct-1-enyl]-5-oxopyrrolidin-1-yl}ethyl)benzoic acid] | 3 mg/kg | – | 18 mg/kg | 0.732 nM | 1240 nM | EC50 (h-EP4 [2]; [5]): 0.014 nM
O=C(O)c1ccc(CCN2C(=O)CCN2CCC(O)Cc2cccc(I)c2)cc1 (centres unmarked) [4-(2-{2-.[4-(3-iodophenyl)-3-hydroxybutyl]-5-oxopyrazolidin-1-yl}ethyl)benzoic acid, reference compound] | – | – | – | – | – | release of ova (mature 10-week CD-1 mice; orally, single dose of 20 mg/kg): 10±3 ova; Ki (h-EP4 [1]; [8]): 14 nM; Ki (h-EP2; read-out: Ki on EP2): 4450 nM
O=C(O)c1ccc(CCN2C(=O)CC[C@@H]2/C=C/[C@H](O)C2(c3ccccc3)CC2)cc1 [Example 8, 4-(2-{(2R)-2-[(1E,3S)-3-hydroxy-3-(1-phenylcyclopropyl)prop-1-enyl]-5-oxopyrrolidin-1-yl}ethyl)benzoic acid] | – | – | – | 25 nM | 1930 nM | –
CCCC1([C@H](O)C/C=C/[C@H]2[C@H](O)CC(=O)[C@@H]2CCCCCCC(=O)OC)CCC1 [Butaprost, reference compound] | > 30 mg/kg | > 10000 nM | – | – | – | –
CCCCC[C@H](O)/C=C/[C@H]1[C@H](O)CC(=O)[C@@H]1C/C=C\CCCC(=O)O [PGE2, reference compound] | – | – | – | – | – | average of ova obtained (mature 10-week CD-1 mice; Group 3: 13.5 mg/kg): an average of 19.4 ova were obtained for Group 3;
CCCCC1([C@H](O)/C=C/[C@H]2CCC(=O)N2CCc2ccc(C(=O)O)cc2)CCC1 [Example 45, 4-(2-{(2R)-2-[(1E,3R)-3-(1-butylcyclobutyl)-3-hydroxyprop-1-enyl]-5-oxopyrrolidin-1-yl}ethyl)benzoic acid] | – | 2 nM | 1 mg/kg | – | – | EC50 (h-EP4 [2]; [5]): 0.3 nM; ID50 (TNFα): 0.010 mg/kg
